PMC12130737, “Taurine Alleviates Pancreatic β‐Cell Senescence by Inhibition of p53 Pathway” (Journal of Diabetes, 2025)
Where a chain is given by its changes, count along the chain named.

What was measured:
[1] = molecular target: T1, GFP-tagged CDKN2AIP (Homo sapiens, UniProt Q9NXV6); assay: DARTS (proteinase K protection, immunoblot); type: biochemical; settings: HEK293 cell lysate, GFP-tagged wild type
T1 construct: GFP-tagged human CDKN2AIP expressed in HEK293 cells, cell lysate
T1 sequence (Q9NXV6 2-580): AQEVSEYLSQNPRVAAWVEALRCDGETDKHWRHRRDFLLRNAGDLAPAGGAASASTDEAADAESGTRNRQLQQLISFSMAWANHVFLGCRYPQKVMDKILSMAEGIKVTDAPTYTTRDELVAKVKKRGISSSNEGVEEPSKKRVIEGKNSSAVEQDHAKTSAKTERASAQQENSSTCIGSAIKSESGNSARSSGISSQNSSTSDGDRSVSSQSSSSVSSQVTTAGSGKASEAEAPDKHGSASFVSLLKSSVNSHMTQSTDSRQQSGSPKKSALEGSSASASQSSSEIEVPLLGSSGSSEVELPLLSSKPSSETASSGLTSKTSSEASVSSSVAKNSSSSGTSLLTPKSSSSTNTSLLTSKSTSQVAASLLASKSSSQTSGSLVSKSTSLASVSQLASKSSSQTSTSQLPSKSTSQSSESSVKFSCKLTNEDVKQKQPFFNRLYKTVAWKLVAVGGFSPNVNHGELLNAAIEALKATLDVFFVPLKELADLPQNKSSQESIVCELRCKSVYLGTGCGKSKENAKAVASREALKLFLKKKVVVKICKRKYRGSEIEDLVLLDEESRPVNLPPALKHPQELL

[2] = molecular target: T2, SLC6A6 (Mus musculus, UniProt O35316); assay: DARTS (proteinase K protection, immunoblot); type: biochemical; settings: MIN6 cell lysate, taurine 0-200 uM, pH 7.5, 1 h on ice; positive control
T2 construct: endogenous protein in MIN6 cell lysate
T2 sequence (O35316 1-621): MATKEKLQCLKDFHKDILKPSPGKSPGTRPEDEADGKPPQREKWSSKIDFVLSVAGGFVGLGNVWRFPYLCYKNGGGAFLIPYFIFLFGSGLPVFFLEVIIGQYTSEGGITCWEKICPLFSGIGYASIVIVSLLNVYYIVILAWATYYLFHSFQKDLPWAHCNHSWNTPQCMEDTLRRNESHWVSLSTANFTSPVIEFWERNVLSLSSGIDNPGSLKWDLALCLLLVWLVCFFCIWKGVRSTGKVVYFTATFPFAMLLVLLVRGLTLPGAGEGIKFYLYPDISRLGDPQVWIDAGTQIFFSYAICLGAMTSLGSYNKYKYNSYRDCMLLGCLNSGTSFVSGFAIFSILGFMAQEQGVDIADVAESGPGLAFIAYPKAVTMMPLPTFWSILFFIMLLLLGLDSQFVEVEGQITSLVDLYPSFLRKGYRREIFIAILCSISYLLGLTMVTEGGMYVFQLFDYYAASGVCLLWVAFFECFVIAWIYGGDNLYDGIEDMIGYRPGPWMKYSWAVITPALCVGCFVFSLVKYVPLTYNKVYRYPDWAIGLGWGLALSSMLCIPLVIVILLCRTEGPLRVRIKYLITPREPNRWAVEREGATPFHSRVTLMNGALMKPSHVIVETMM

[3] = molecular target: T3, SLC6A6 (Rattus norvegicus, UniProt P31643); assay: DARTS (proteinase K protection, immunoblot); type: biochemical; settings: INS-1E cell lysate, taurine 0-200 uM, pH 7.5, 1 h on ice; positive control
T3 construct: endogenous protein in INS-1E cell lysate
T3 sequence (P31643 1-621): T2 sequence (O35316 1-621) with H151Q, T188A, N212H, D281N, G286E, L435V, V521I, L555V, V602A

[4] = molecular target: T4, CDKN2AIP recombinant protein (Homo sapiens, UniProt Q9NXV6); assay: DARTS (proteinase K protection of recombinant protein); type: binding
T4 construct: recombinant human CDKN2AIP
T4 sequence (Q9NXV6 2-580): T1 sequence (Q9NXV6 2-580)

[5] = molecular target: T5, GFP-tagged CDKN2AIP (Homo sapiens, UniProt Q9NXV6, P484A/L485A/K486A); assay: DARTS (proteinase K protection, immunoblot); type: biochemical; settings: HEK293 cell lysate, GFP-tagged triple mutant
T5 construct: GFP-tagged human CDKN2AIP expressed in HEK293 cells, cell lysate
T5 sequence (Q9NXV6 2-580 P484A/L485A/K486A): T1 sequence (Q9NXV6 2-580) with P483A, L484A, K485A

[6] = molecular target: T6, CDKN2AIP (Mus musculus, UniProt Q8BI72); assay: DARTS (proteinase K protection, immunoblot); type: biochemical; settings: MIN6 cell lysate, taurine 0-200 uM, pH 7.5, 1 h on ice
T6 construct: endogenous protein in MIN6 cell lysate
T6 sequence (Q8BI72 2-563): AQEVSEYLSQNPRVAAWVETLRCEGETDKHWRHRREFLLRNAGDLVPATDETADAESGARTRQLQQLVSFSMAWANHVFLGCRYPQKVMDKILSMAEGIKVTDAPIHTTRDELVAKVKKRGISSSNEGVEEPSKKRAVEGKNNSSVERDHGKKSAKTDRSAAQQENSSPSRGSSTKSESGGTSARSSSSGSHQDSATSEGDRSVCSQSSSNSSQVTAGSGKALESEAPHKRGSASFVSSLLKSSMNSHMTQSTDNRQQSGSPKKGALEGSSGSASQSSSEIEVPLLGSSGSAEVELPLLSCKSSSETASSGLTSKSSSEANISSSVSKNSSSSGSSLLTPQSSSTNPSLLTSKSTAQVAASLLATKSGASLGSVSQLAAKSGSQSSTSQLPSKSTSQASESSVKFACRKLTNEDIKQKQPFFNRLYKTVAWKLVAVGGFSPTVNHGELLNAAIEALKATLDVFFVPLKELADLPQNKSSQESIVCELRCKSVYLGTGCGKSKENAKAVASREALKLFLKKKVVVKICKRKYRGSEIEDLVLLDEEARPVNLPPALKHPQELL

[7] = molecular target: T7, CDKN2AIP (Rattus norvegicus, UniProt Q5U2X0); assay: DARTS (proteinase K protection, immunoblot); type: biochemical; settings: INS-1E cell lysate, taurine 0-200 uM, pH 7.5, 1 h on ice
T7 construct: endogenous protein in INS-1E cell lysate
T7 sequence (Q5U2X0 2-570): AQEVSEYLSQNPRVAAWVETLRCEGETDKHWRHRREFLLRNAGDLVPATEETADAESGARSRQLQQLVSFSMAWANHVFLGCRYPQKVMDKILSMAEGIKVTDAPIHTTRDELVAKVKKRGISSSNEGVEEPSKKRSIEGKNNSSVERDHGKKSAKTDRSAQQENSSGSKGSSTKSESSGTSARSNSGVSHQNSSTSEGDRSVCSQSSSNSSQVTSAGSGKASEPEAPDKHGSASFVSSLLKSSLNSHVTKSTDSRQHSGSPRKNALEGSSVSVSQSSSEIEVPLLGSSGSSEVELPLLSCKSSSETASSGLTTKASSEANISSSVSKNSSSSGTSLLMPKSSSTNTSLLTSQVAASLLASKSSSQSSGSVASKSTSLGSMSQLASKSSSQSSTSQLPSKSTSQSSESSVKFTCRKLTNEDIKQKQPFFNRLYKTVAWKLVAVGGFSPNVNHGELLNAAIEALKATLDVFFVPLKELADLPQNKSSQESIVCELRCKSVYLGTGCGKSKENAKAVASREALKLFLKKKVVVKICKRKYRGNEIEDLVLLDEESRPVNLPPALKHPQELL

## NCCS(=O)(=O)O [taurine, 2‐aminoethanesulfonic acid]
[1]
  DARTS (proteinase K protection, immunoblot): DARTS experiments demonstrated that taurine bound to wild‐type CDKN2AIP
[2]
  DARTS (proteinase K protection, immunoblot): taurine dose‐dependently prevented protease K‐induced degradation of CDKN2AIP and SLC6A6
[3]
  DARTS (proteinase K protection, immunoblot): taurine dose‐dependently prevented protease K‐induced degradation of CDKN2AIP and SLC6A6
[4]
  DARTS (proteinase K protection of recombinant protein): Taurine also prevented proteinase K‐induced degradation of the CDKN2AIP recombinant protein
[5]
  DARTS (proteinase K protection, immunoblot): taurine bound to wild‐type CDKN2AIP but not the CDKN2AIP‐triple mutant
[6]
  DARTS (proteinase K protection, immunoblot): taurine dose‐dependently prevented protease K‐induced degradation of CDKN2AIP and SLC6A6
[7]
  DARTS (proteinase K protection, immunoblot): taurine dose‐dependently prevented protease K‐induced degradation of CDKN2AIP and SLC6A6
